From patent US8722849B2, “Polypeptides” (Novo Nordisk A/S, priority 2011, dated 2014)
Starred links: 1 amine or outer side, 2 acyl side, 3 side chain; linkers in the order of their positions; H or OH if unused. Positions of bridges follow the written chain, without caps; N, C: chain ends. Residues, ends and D or L forms follow the SMILES beside them. *: point of attachment. C20 diacid = O=C(O)CCCCCCCCCCCCCCCCCCC(=O)*; γGlu = O=C(O)[C@H](CCC(=O)[*:2])N[*:1]

Legend:
food intake = test: Assay (I) efficacy testing on appetite (food intake), ad libitum fed rat model; type: in vivo, Sprague Dawley (SD) rats
Source text: In the following examples reference is made to the following Assays: • Assay (I)— Experimental protocol for efficacy testing on appetite using an ad libitum fed rat model • ASSAY (II)a—Functional assay—Human calcitonin and amylin receptor assay • ASSAY (II)b—Functional assay—Rat calcitonin and rat amylin receptor assays • ASSAY (III)—ThT fibrillation assays for the assessment of physical stability of protein formulations • ASSAY (IV)—Determination of solubility • ASSAY (V)—Determination of binding to the human amylin receptor • ASSAY (VI)—Determination of the binding to the rat amylin receptor • ASSAY (VII)—Determination of binding to the human calcitonin receptor • ASSAY (VIII)—Determination of binding to the rat calcitonin receptor • ASSAY (IX)—pK—Determination of T % in mini-pig • ASSAY (X)—pK—Determination of T % in rat ASSAY (I)—Experimental Protocol for Efficacy Testing on Appetite Using an Ad Libitum Fed Rat Model
Sprague Dawley (SD) rats from Taconic Europe, Denmark are used for the experiments. The rats have a body weight 200-250 g at the start of experiment. The rats arrive at least 10-14 days before start of experiment to allow acclimatization to experimental settings. During this period the animals are handled at least 2 times. After arrival rats are housed individually for one week in a reversed light/dark phase (meaning that lights are off during daytime and on during nighttime) […]. Since rats are normally active and eat their major part of their daily food intake during the dark period, rats are dosed in the morning right before lights are turned off. This set-up results in the lowest data variation and highest test sensitivity. The experiment is conducted in the rats' home cages and rats have free access to food and water throughout the acclimatization period and the experiment period. Each dose of derivative is tested in a group of 5-8 rats. A vehicle group of 6-8 rats is included in each set of testing. Rats are dosed once according to body weight with a 0.01-3 mg/kg solution administered intraperitoneally (ip), orally (po) or subcutaneously (sc). The time of dosing is recorded for each group. After dosing, the rats are returned to their home cages, where they then have access to food and water. The food consumption is recorded individually continuously by on-line registration or manually every hour for 7 hours, and then after 24 h and sometimes 48 h. At the end of the experimental session, the animals are euthanised.
The individual data are recorded in Microsoft excel sheets. Outliers are excluded after applying the Grubbs statistical evaluation test for outliers, and the result is presented graphically using the GraphPad Prism program.

[1] = Assay (III) ThT fibrillation assay for physical stability; type: physicochemical
Method in brief: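 Freshly prepared formulations, pH-adjusted, with 1 μM ThT; four or eight replicates incubated at 37 °C under 960 rpm orbital shaking. Fluorescence (ex 444/em 485 nm) read every 20 min; […]. Peptide concentration measured by RP-HPLC before and after the run.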

Structure (SMILES) | Food intake reduction 0-24 h 3 nmol/kg (%) (food intake; 0-24 h) | Food intake reduction 24-48 h 3 nmol/kg (%) (food intake; 24-48 h) | ThT pH 4.0 lag time ([1]; ThT fibrillation assay) | ThT pH 4.0 lag time (h) ([1]; ThT fibrillation assay) | ThT pH 4.0 lag time ([1]; Table 8) | ThT pH 4.0 lag time ([1]; Table 9) | Food intake reduction 0-24 h 30 nmol/kg (%) (food intake; 0-24 h, 30 nmol/kg) | Food intake reduction 24-48 h 30 nmol/kg (%) (food intake; 24-48 h, 30 nmol/kg)
CC[C@H](C)[C@H](NC(=O)[C@@H]1CCCN1C(=O)CNC(=O)[C@H](Cc1ccccc1)NC(=O)[C@H](CC(N)=O)NC(=O)[C@H](CC(N)=O)NC(=O)[C@H](CO)NC(=O)[C@H](CO)NC(=O)[C@H](Cc1c[nH]cn1)NC(=O)[C@H](Cc1c[nH]cn1)NC(=O)[C@H](CC(C)C)NC(=O)[C@H](Cc1ccccc1)NC(=O)[C@H](CCC(=O)O)NC(=O)[C@H](C)NC(=O)[C@H](CC(C)C)NC(=O)[C@H](CCCNC(=N)N)NC(=O)[C@H](CCC(N)=O)NC(=O)[C@@H](NC(=O)[C@H](C)NC(=O)[C@@H]1CSSC[C@H](NC(=O)[C@H](Cc2c[nH]cn2)NC(=O)[C@H](Cc2c[nH]cn2)NC(=O)CC[C@H](NC(=O)CCCCCCCCCCCCCCCCCCC(=O)O)C(=O)O)C(=O)N[C@@H](CC(N)=O)C(=O)N[C@@H]([C@@H](C)O)C(=O)N[C@@H](C)C(=O)N[C@@H]([C@@H](C)O)C(=O)N1)[C@@H](C)O)C(=O)N[C@@H](CC(C)C)C(=O)N1CCC[C@H]1C(=O)N1CCC[C@H]1C(=O)N[C@H](C(=O)N[C@@H](CC(N)=O)C(=O)N[C@H](C(=O)NCC(=O)N[C@@H](CO)C(=O)N[C@@H](CC(N)=O)C(=O)N[C@H](C(=O)N[C@@H](Cc1ccc(O)cc1)C(N)=O)[C@@H](C)O)C(C)C)[C@@H](C)O [Example 17, N-alpha-[(S)-4-Carboxy-4-(19-carboxynonadecanoylamino)butyryl]-His-[His1,Glu14,His17]-pramlintide] ({C20 diacid-γGlu}-HHCNTATCATQRLAEFLHHSSNNFGPILPPTNVGSNTY-NH2; disulfide 3-8 (inferred); C-terminus assumed) | 40% | 22% | 30.3 h | 30.3 h | – | – | – | –
CC[C@H](C)[C@H](NC(=O)[C@@H]1CCCN1C(=O)CNC(=O)[C@H](Cc1ccccc1)NC(=O)[C@H](CC(N)=O)NC(=O)[C@H](CC(N)=O)NC(=O)[C@H](CO)NC(=O)[C@H](CO)NC(=O)[C@H](Cc1c[nH]cn1)NC(=O)[C@H](Cc1c[nH]cn1)NC(=O)[C@H](CC(C)C)NC(=O)[C@H](Cc1ccccc1)NC(=O)[C@H](CCC(=O)O)NC(=O)[C@H](C)NC(=O)[C@H](CC(C)C)NC(=O)[C@H](CCCNC(=N)N)NC(=O)[C@H](CCC(N)=O)NC(=O)[C@@H](NC(=O)[C@H](C)NC(=O)[C@@H]1CSSC[C@H](NC(=O)CC[C@H](NC(=O)CCCCCCCCCCCCCCCCCCC(=O)O)C(=O)O)C(=O)N[C@@H](CC(N)=O)C(=O)N[C@@H]([C@@H](C)O)C(=O)N[C@@H](C)C(=O)N[C@@H]([C@@H](C)O)C(=O)N1)[C@@H](C)O)C(=O)N[C@@H](CC(C)C)C(=O)N1CCC[C@H]1C(=O)N1CCC[C@H]1C(=O)N[C@H](C(=O)N[C@@H](CC(N)=O)C(=O)N[C@H](C(=O)NCC(=O)N[C@@H](CO)C(=O)N[C@@H](CC(N)=O)C(=O)N[C@H](C(=O)N[C@@H](Cc1ccc(O)cc1)C(N)=O)[C@@H](C)O)C(C)C)[C@@H](C)O [Example 28, N-alpha-[(S)-4-Carboxy-4-(19-carboxynonadecanoylamino)butyryl]-[des1,Glu14,His17]-pramlintide] ({C20 diacid-γGlu}-CNTATCATQRLAEFLHHSSNNFGPILPPTNVGSNTY-NH2; disulfide 1-6 (inferred)) | 39% | 36% | – | 9.3 h | – | – | – | –
CC[C@H](C)[C@H](NC(=O)[C@@H]1CCCN1C(=O)CNC(=O)[C@H](Cc1ccccc1)NC(=O)[C@H](CC(N)=O)NC(=O)[C@H](CC(N)=O)NC(=O)[C@H](CO)NC(=O)[C@H](CO)NC(=O)[C@H](Cc1c[nH]cn1)NC(=O)[C@H](Cc1c[nH]cn1)NC(=O)[C@H](CC(C)C)NC(=O)[C@H](Cc1ccccc1)NC(=O)[C@H](CCC(=O)O)NC(=O)[C@H](C)NC(=O)[C@H](CC(C)C)NC(=O)[C@H](CCCNC(=N)N)NC(=O)[C@H](CCC(N)=O)NC(=O)[C@@H](NC(=O)[C@H](C)NC(=O)[C@@H]1CSSC[C@H](NC(=O)[C@H](CCC(=O)O)NC(=O)CC[C@H](NC(=O)CCCCCCCCCCCCCCCCCCC(=O)O)C(=O)O)C(=O)N[C@@H](CC(N)=O)C(=O)N[C@@H]([C@@H](C)O)C(=O)N[C@@H](C)C(=O)N[C@@H]([C@@H](C)O)C(=O)N1)[C@@H](C)O)C(=O)N[C@@H](CC(C)C)C(=O)N1CCC[C@H]1C(=O)N1CCC[C@H]1C(=O)N[C@H](C(=O)N[C@@H](CC(N)=O)C(=O)N[C@H](C(=O)NCC(=O)N[C@@H](CO)C(=O)N[C@@H](CC(N)=O)C(=O)N[C@H](C(=O)N[C@@H](Cc1ccc(O)cc1)C(N)=O)[C@@H](C)O)C(C)C)[C@@H](C)O [Example 29, N-alpha-[(S)-4-Carboxy-4-(19-carboxynonadecanoylamino)butyryl]-[Glu1,Glu14,His17]-pramlintide] ({C20 diacid-γGlu}-ECNTATCATQRLAEFLHHSSNNFGPILPPTNVGSNTY-NH2; disulfide 2-7 (inferred)) | 15% | 5% | – | 3 h | – | – | – | –
CC[C@H](C)[C@H](NC(=O)[C@@H]1CCCN1C(=O)CNC(=O)[C@H](Cc1ccccc1)NC(=O)[C@H](CC(N)=O)NC(=O)[C@H](CC(N)=O)NC(=O)[C@H](CO)NC(=O)[C@H](CO)NC(=O)[C@H](Cc1c[nH]cn1)NC(=O)[C@H](Cc1c[nH]cn1)NC(=O)[C@H](CC(C)C)NC(=O)[C@H](Cc1ccccc1)NC(=O)[C@H](CCC(=O)O)NC(=O)[C@H](C)NC(=O)[C@H](CC(C)C)NC(=O)[C@H](CCCNC(=N)N)NC(=O)[C@H](CCC(N)=O)NC(=O)[C@@H](NC(=O)[C@H](C)NC(=O)[C@@H]1CSSC[C@H](NC(=O)[C@H](CCCCN)NC(=O)CC[C@H](NC(=O)CCCCCCCCCCCCCCCCCCC(=O)O)C(=O)O)C(=O)N[C@@H](CC(N)=O)C(=O)N[C@@H]([C@@H](C)O)C(=O)N[C@@H](C)C(=O)N[C@@H]([C@@H](C)O)C(=O)N1)[C@@H](C)O)C(=O)N[C@@H](CC(C)C)C(=O)N1CCC[C@H]1C(=O)N1CCC[C@H]1C(=O)N[C@H](C(=O)N[C@@H](CC(N)=O)C(=O)N[C@H](C(=O)NCC(=O)N[C@@H](CO)C(=O)N[C@@H](CC(N)=O)C(=O)N[C@H](C(=O)N1CCC[C@H]1C(N)=O)[C@@H](C)O)C(C)C)[C@@H](C)O [Example 52, N-alpha-[(S)-4-Carboxy-4-(19-carboxynonadecanoylamino)butyryl]-[Glu14,His17,Pro37]-pramlintide] ({C20 diacid-γGlu}-KCNTATCATQRLAEFLHHSSNNFGPILPPTNVGSNTP-NH2; disulfide 2-7 (inferred); C-terminus assumed) | 62% | 74% | >45 h | >45 h | >45 h | >45 h | – | –
CC[C@H](C)[C@H](NC(=O)[C@@H]1CCCN1C(=O)CNC(=O)[C@H](Cc1ccccc1)NC(=O)[C@H](CC(N)=O)NC(=O)[C@H](CC(N)=O)NC(=O)[C@H](CO)NC(=O)[C@H](CO)NC(=O)[C@H](Cc1c[nH]cn1)NC(=O)[C@H](Cc1c[nH]cn1)NC(=O)[C@H](CC(C)C)NC(=O)[C@H](Cc1ccccc1)NC(=O)[C@H](CCC(=O)O)NC(=O)[C@H](C)NC(=O)[C@H](CC(C)C)NC(=O)[C@H](CCCNC(=N)N)NC(=O)[C@H](CCC(N)=O)NC(=O)[C@@H](NC(=O)[C@H](C)NC(=O)[C@@H]1CSSC[C@H](NC(=O)[C@H](CCCCN)NC(=O)CC[C@H](NC(=O)CCCCCCCCCCCCCCCCCCC(=O)O)C(=O)O)C(=O)N[C@@H](CC(N)=O)C(=O)N[C@@H]([C@@H](C)O)C(=O)N[C@@H](C)C(=O)N[C@@H]([C@@H](C)O)C(=O)N1)[C@@H](C)O)C(=O)N[C@@H](CC(C)C)C(=O)N1CCC[C@H]1C(=O)N1CCC[C@H]1C(=O)N[C@H](C(=O)N[C@@H](CC(N)=O)C(=O)N[C@H](C(=O)NCC(=O)N[C@@H](CO)C(=O)N[C@@H](Cc1c[nH]cn1)C(=O)N[C@H](C(=O)N[C@@H](Cc1ccc(O)cc1)C(N)=O)[C@@H](C)O)C(C)C)[C@@H](C)O [Example 55, N-alpha-[(S)-4-Carboxy-4-(19-carboxynonadecanoylamino)butyryl]-[Glu14,His17,His35]-pramlintide] ({C20 diacid-γGlu}-KCNTATCATQRLAEFLHHSSNNFGPILPPTNVGSHTY-NH2; disulfide 2-7 (inferred)) | 58% | 40% | 37 h | 37 h | – | – | 88% | 90%
